pIC50: −log10 of the molar value.
Molecular target: T1, human topoisomerase I (TOP1) (Homo sapiens, UniProt P11387)
T1 sequence (P11387 2-765): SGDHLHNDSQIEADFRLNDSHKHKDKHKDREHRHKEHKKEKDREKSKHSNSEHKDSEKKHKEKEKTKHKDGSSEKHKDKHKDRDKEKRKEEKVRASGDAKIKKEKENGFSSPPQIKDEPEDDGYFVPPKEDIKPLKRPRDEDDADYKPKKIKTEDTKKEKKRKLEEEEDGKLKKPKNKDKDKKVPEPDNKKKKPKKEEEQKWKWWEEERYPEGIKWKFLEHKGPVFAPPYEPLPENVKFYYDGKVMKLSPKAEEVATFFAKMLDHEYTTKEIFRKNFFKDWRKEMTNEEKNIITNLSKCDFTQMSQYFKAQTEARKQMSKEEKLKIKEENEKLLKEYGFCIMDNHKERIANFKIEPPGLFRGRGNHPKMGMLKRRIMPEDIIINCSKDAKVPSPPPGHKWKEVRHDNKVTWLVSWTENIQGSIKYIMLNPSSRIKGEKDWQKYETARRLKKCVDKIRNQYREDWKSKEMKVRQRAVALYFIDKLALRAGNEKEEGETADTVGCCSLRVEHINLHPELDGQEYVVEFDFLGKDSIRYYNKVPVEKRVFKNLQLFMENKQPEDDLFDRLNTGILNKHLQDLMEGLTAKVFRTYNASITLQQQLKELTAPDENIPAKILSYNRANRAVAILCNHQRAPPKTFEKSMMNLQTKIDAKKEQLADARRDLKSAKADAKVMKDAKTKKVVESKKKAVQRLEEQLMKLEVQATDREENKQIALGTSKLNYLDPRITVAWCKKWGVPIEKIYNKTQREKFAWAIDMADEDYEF
Assay: supercoiled plasmid DNA relaxation, agarose gel
Type: biochemical

Row | SMILES | pIC50
1 | O=c1c(O)c(-c2cc(O)c(O)c(O)c2)oc2cc(O)cc(O)c12 [myricetin] | ~5.00
2 | O=C(Nc1ccc(Sc2ccc(N=Nc3c(O)c(S(=O)(=O)O)cc4cc(S(=O)(=O)O)ccc34)cc2)cc1)c1ccc(N=Nc2c(O)c(S(=O)(=O)O)cc3cc(S(=O)(=O)O)ccc23)cc1 [NSC65860] | 6.05
